Results as given in ChEMBL document CHEMBL4007440, “Development of the First Generation of Disulfide-Based Subtype-Selective and Potent Covalent Pyruvate Dehydrogenase Kinase 1 (PDK1) Inhibitors” (J Med Chem, 2017).
Active and inactive are the calls of the source. The rule behind the calls is not given here.

What was measured:
[1] = target: T1, [Pyruvate dehydrogenase (acetyl-transferring)] kinase isozyme 1, mitochondrial (Homo sapiens, UniProt Q15118); experiment: Inhibition of full length His6-tagged PDK1 (unknown origin) expressed in Escherichia coli using full length His6-tagged PDHA1 as substrate after 30 mins by ELISA
[2] = system: A549; experiment: Antitumor activity against human A549 cells xenografted in BALB/c nude mouse assessed as reduction in tumor weight at 40 to 80 mg/kg, ip for 21 days measured on day 21 post dose; type: functional, organism-based
[3] = target: T1, [Pyruvate dehydrogenase (acetyl-transferring)] kinase isozyme 1, mitochondrial; experiment: Inhibition of PDK1 in human A549 cells assessed as increase in reactive oxygen species after 24 hrs by dihydroethidium staining based FACS analysis; type: cell-based
[4] = target: T1, [Pyruvate dehydrogenase (acetyl-transferring)] kinase isozyme 1, mitochondrial; experiment: Inhibition of PDK1 in human A549 cells assessed as reduction in phosphorylation of PDHE1 at S293 residue after 24 hrs by chemiluminescence/femtochemiluminescence method; type: cell-based
[5] = system: A549; experiment: Antitumor activity against human A549 cells xenografted in BALB/c nude mouse assessed as tumor growth inhibition at 80 mg/kg, ip for 21 days measured on day 21 post dose relative to control; type: functional; settings: 504 h, read-out: TGI
[6] = Antiproliferative activity against human GM00637 cells after 72 hrs by CCK8 assay; type: cell-based; settings: GM00637, 72 h
[7] = target: T1, [Pyruvate dehydrogenase (acetyl-transferring)] kinase isozyme 1, mitochondrial; experiment: Inhibition of PDK1 in human A549 cells assessed as reduction in extracellular acidification rate after 24 hrs by fluorescent biosensor based assay; type: cell-based
[8] = system: A549; experiment: cells; settings: Homo sapiens, A549, 72 h
Description: Antiproliferative activity against human A549 cells after 72 hrs by CCK8 assay

[9] = target: [Pyruvate dehydrogenase (acetyl-transferring)] kinase isozyme 2, mitochondrial (Homo sapiens, UniProt Q15119); experiment: Inhibition of PDK2 (unknown origin) using full length His6-tagged PDHA1 as substrate after 30 mins by ELISA
[10] = target: [Pyruvate dehydrogenase (acetyl-transferring)] kinase isozyme 4, mitochondrial (Homo sapiens, UniProt Q16654); experiment: Inhibition of PDK4 (unknown origin) at 10 uM using full length His6-tagged PDHA1 as substrate after 30 mins by ELISA
[11] = Antiproliferative activity against human Kelly cells after 72 hrs by CCK8 assay
[12] = system: A549; experiment: Antitumor activity against human A549 cells xenografted in BALB/c nude mouse assessed as tumor growth inhibition at 40 mg/kg, ip for 21 days measured on day 21 post dose relative to control; type: functional; settings: 504 h, read-out: TGI
[13] = target: T1, [Pyruvate dehydrogenase (acetyl-transferring)] kinase isozyme 1, mitochondrial; experiment: Inhibition of full length His6-tagged PDK1 (unknown origin) expressed in Escherichia coli using full length His6-tagged PDHA1 as substrate in presence of GSH after 30 mins by ELISA
[14] = target: T1, [Pyruvate dehydrogenase (acetyl-transferring)] kinase isozyme 1, mitochondrial; experiment: Inhibition of PDK1 in human A549 cells assessed as reduction in phosphorylation of PDHE1 at S232 residue after 24 hrs by chemiluminescence/femtochemiluminescence method; type: cell-based
[15] = system: L02; experiment: Antiproliferative activity against human LO2 cells after 72 hrs by CCK8 assay; type: cell-based; settings: L02, 72 h
[16] = system: Mus musculus; experiment: Toxicity in BALB/c nude mouse assessed as body weight loss at 40 to 80 mg/kg, ip for 21 days; type: organism-based; settings: in vivo, 504 h
[17] = target: [Pyruvate dehydrogenase (acetyl-transferring)] kinase isozyme 3, mitochondrial (Homo sapiens, UniProt Q15120); experiment: Inhibition of PDK3 (unknown origin) using full length His6-tagged PDHA1 as substrate after 30 mins by ELISA
[18] = target: T1, [Pyruvate dehydrogenase (acetyl-transferring)] kinase isozyme 1, mitochondrial; experiment: Inhibition of PDK1 in human A549 cells assessed as reduction in phosphorylation of PDHE1 at S232 residue at 10 uM after 24 hrs by chemiluminescence/femtochemiluminescence method; type: cell-based
[19] = target: T1, [Pyruvate dehydrogenase (acetyl-transferring)] kinase isozyme 1, mitochondrial; experiment: Inhibition of PDK1 in human A549 cells assessed as reduction in phosphorylation of PDHE1 at S232 residue at 1 uM after 24 hrs by chemiluminescence/femtochemiluminescence method; type: cell-based
[20] = target: T1, [Pyruvate dehydrogenase (acetyl-transferring)] kinase isozyme 1, mitochondrial; experiment: Inhibition of PDK1 in human A549 cells assessed as reduction in phosphorylation of PDHE1 at S293 residue at 1 uM after 24 hrs by chemiluminescence/femtochemiluminescence method; type: cell-based
[21] = target: T1, [Pyruvate dehydrogenase (acetyl-transferring)] kinase isozyme 1, mitochondrial; experiment: Inhibition of PDK1 in human A549 cells assessed as reduction in phosphorylation of PDHE1 at S293 residue at 10 uM after 24 hrs by chemiluminescence/femtochemiluminescence method; type: cell-based
[22] = target: T1, [Pyruvate dehydrogenase (acetyl-transferring)] kinase isozyme 1, mitochondrial; experiment: Ratio of Kinact to Ki for full length His6-tagged PDK1 (unknown origin) expressed in Escherichia coli
[23] = target: T1, [Pyruvate dehydrogenase (acetyl-transferring)] kinase isozyme 1, mitochondrial; experiment: Inhibition of full length His6-tagged PDK1 (unknown origin) expressed in Escherichia coli assessed as inactivation rate using full length His6-tagged PDHA1 as substrate up to 45 mins by ELISA
[24] = target: T1, [Pyruvate dehydrogenase (acetyl-transferring)] kinase isozyme 1, mitochondrial; experiment: Inhibition of full length His6-tagged PDK1 (unknown origin) expressed in Escherichia coli up to 10 uM using full length His6-tagged PDHA1 as substrate after 30 mins by ELISA

T1 sequence (Q15118 whole entry): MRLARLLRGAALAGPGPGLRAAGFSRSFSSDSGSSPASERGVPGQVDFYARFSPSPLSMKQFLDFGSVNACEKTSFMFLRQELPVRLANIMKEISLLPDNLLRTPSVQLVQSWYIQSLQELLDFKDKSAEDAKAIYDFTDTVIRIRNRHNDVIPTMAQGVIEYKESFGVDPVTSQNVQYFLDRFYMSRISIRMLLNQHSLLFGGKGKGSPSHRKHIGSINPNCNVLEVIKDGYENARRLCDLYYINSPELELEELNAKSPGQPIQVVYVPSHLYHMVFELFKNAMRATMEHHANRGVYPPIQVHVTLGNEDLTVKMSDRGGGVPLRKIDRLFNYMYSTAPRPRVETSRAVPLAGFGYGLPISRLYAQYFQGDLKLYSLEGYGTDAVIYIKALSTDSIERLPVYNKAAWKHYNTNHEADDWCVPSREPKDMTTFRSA
[Pyruvate dehydrogenase (acetyl-transferring)] kinase isozyme 4, mitochondrial, sequence (Q16654 whole entry, looked up): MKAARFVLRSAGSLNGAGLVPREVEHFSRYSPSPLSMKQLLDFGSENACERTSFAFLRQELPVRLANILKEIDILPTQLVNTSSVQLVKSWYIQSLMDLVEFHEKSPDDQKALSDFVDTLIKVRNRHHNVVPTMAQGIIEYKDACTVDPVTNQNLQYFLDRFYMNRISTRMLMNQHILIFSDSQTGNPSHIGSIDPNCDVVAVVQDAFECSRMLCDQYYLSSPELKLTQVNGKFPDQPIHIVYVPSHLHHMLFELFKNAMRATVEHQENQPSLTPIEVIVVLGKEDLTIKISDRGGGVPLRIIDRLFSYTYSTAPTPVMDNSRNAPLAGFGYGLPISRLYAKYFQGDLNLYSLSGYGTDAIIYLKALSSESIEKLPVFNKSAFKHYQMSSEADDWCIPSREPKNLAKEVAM
[Pyruvate dehydrogenase (acetyl-transferring)] kinase isozyme 3, mitochondrial, sequence (Q15120 whole entry): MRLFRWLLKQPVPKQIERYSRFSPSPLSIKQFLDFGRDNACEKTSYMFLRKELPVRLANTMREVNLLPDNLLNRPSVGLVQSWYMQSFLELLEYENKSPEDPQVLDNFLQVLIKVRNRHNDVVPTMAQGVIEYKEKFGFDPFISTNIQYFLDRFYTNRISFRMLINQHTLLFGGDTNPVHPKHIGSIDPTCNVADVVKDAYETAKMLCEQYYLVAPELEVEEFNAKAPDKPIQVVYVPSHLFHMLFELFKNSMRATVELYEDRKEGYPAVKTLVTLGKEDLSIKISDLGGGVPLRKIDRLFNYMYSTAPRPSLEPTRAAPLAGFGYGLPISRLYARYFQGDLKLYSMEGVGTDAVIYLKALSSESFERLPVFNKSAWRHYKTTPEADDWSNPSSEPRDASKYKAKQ

With `CCCCOCC1CN(C(=S)SSC(=S)N2CCCOC(COCCCC)C2)CCCO1` (stereo not given) the IC50 [1] was 588 nM.
In the case of `S=C(SSC(=S)N1CCOCC1)N1CCOCC1`, the Activity [2] is reported as “Active”, the inhibition [3] is reported as “Dose-dependent effect” and the inhibition [4] is reported as “Dose-dependent effect”. The inhibition in vivo at 80 mg/kg [5] was 50.4%, the IC50 [6] was > 10000 nM and the IC50 [1] was 49 nM. For the same molecule, the Ki [1] was 462 nM, the inhibition [7] was “Dose-dependent effect” and the IC50 [8] was 480 nM. The Ki [9] was 176 nM, the inhibition [10] was “inactive” and the IC50 [11] was 289 nM. The inhibition in vivo at 40 mg/kg [12] was 27.7%, the inhibition [13] was “inactive” and the inhibition [14] was “Dose-dependent effect”. The IC50 [15] was > 10000 nM, the Activity [16] was “Non-Toxic” and the Ki [17] was 2850 nM.
For `COC(=O)C1CN(C(=S)SSC(=S)N2CCOC(C(=O)OC)C2)CCO1` (stereo not given), the inhibition [18] was “Active”, the inhibition [19] was “Active” and the inhibition [20] was “Active”. For the same molecule, the IC50 [1] was 85 nM and the inhibition [21] was “Active”.
`O=C(O)C1CN(C(=S)SSC(=S)N2CCOC(C(=O)O)C2)CCO1` (stereo not given) showed an IC50 [1] of 126 nM.
With `S=C(SSC(=S)N1CCO[C@H]2CCCC[C@@H]21)N1CCO[C@H]2CCCC[C@@H]21` the IC50 [1] was 289 nM and the inhibition [21] was “Active”.
For `c1csc(SSc2nccs2)n1`, the IC50 [1] was 326 nM, the Ki [1] was 3730 nM and the Ratio [22] was 1.53 ×10³ /M/s. For the same molecule, the Kinact [23] was 56.5 ×10⁻⁴ /s.
In the case of `Sc1nc2ccccc2s1`, the inhibition [24] is reported as “inactive”.
In the case of `COCC1CN(C(=S)SSC(=S)N2CCCOC(COC)C2)CCCO1` (stereo not given), the IC50 [1] is reported as 350 nM.
In the case of `C1Cc2nc(SSc3nc4c(s3)COCC4)sc2CO1`, the IC50 [1] is reported as 169 nM.
With `Cc1ccc(OCC2CN(C(=S)SSC(=S)N3CCCOC(COc4ccc(C)cc4)C3)CCCO2)cc1` (stereo not given) the IC50 [1] was > 10000 nM.
With `CC1CN(C(=S)SSC(=S)N2CCOC(C)C2)CCO1` (stereo not given) the inhibition [18] was “Active”, the inhibition [19] was “Active” and the inhibition [20] was “Active”. The IC50 [1] was 96 nM and the inhibition [21] was “Active”.
For `S=C(SSC(=S)N1CCCOCC1)N1CCCOCC1`, the inhibition [18] was “Active”, the Activity [2] was “Active” and the inhibition [3] was “Dose-dependent effect”. The inhibition [4] was “Dose-dependent effect”, the inhibition [19] was “Active” and the inhibition in vivo at 80 mg/kg [5] was 47.8%. The IC50 [6] was > 10000 nM, the inhibition [20] was “Active” and the IC50 [1] was 26 nM. For the same molecule, the Ki [1] was 109 nM, the inhibition [7] was “Dose-dependent effect” and the IC50 [8] was 225 nM. The Ki [9] was 1280 nM, the inhibition [10] was “inactive” and the IC50 [11] was 57 nM. The inhibition in vivo at 40 mg/kg [12] was 26.2%, the inhibition [13] was “inactive” and the inhibition [14] was “Dose-dependent effect”. For the same molecule, the IC50 [15] was > 10000 nM, the Activity [16] was “Non-Toxic” and the Ki [17] was 7760 nM. The inhibition [21] was “Active”.
For `S=C(SSC(=S)N1CCOc2ccccc21)N1CCOc2ccccc21`, the IC50 [1] was 1050 nM, the Ki [1] was 3350 nM and the Ratio [22] was 0.06 ×10³ /M/s. For the same molecule, the Kinact [23] was 2.1 ×10⁻⁴ /s.
With `CCOCC1CN(C(=S)SSC(=S)N2CCOC(COCC)C2)CCO1` (stereo not given) the IC50 [1] was 101 nM.
In the case of `CC(=O)OCC1CN(C(=S)SSC(=S)N2CCOC(COC(C)=O)C2)CCO1` (stereo not given), the inhibition [18] is reported as “Active”, the inhibition [19] is reported as “Active” and the inhibition [20] is reported as “Active”. For the same molecule, the IC50 [1] was 113 nM and the inhibition [21] was “Active”.
`O=C(O)C1CCc2nc(SSc3nc4c(s3)CC(C(=O)O)CC4)sc2C1` (stereo not given) gave an IC50 [1] of 130 nM.
In the case of `c1ccc2sc(SSc3nc4ccccc4s3)nc2c1` [BENZOTHIAZYL DISULFIDE], the IC50 [1] is reported as 379 nM.
For `S=C(SSC(=S)N1CCOC(COc2ccccc2)C1)N1CCOC(COc2ccccc2)C1` (stereo not given), the IC50 [1] was 247 nM and the inhibition [21] was “Active”.
In the case of `O=[N+]([O-])c1ccc2nc(SSc3nc4ccc([N+](=O)[O-])cc4s3)sc2c1`, the IC50 [1] is reported as 161 nM.
`OCC1CN(C(=S)SSC(=S)N2CCCOC(CO)C2)CCCO1` (stereo not given) showed an IC50 [1] of 2850 nM.
`C1CCc2sc(SSc3nc4c(s3)CCCC4)nc2C1` gave an IC50 [1] of 90 nM.
Molecule `CCOCC1CN(C(=S)SSC(=S)N2CCCOC(COCC)C2)CCCO1` (stereo not given) has an IC50 [1] of 622 nM.
